We go through 10 molecules from PubChem BioAssay (NCI).

Among the test systems are A549 NSCLC; HL-60(TB) leukemia; HOP-62 NSCLC; LOX IMVI melanoma; SK-MEL-2 melanoma; SK-MEL-5 melanoma; SNB-75 CNS; UO-31 renal; EKVX NSCLC.
Holding throughout (assay): DTP human tumour cell line panel, 48 h

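Five compound concentrations were applied to cells in 96-well plates for 48 hours; endpoints were derived by simple linear interpolation of the resulting dose-response curve. GI50 marks 50% less growth. TGI denotes the concentration required for complete inhibition of growth.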

The term GI50 denotes the concentration that inhibits growth by half. By TGI is commonly meant the concentration at which net growth stops. The low end stands for greater sensitivity of the cells, the high end for lower sensitivity of the cells. For `CCCCN(Cc1ccc(F)cc1)c1ccc(CO)c(Cl)c1`, the GI50 is 7.38 µM in the experiment with A549 NSCLC; 14.1 µM in the experiment on HL-60(TB) leukemia; 11.1 µM in the experiment with HOP-62 NSCLC; 16.3 µM in the experiment on LOX IMVI melanoma; 14.5 µM with SK-MEL-2 melanoma; 14.3 µM with SK-MEL-5 melanoma. The values for the GI50 in the experiment with SNB-75 CNS and in the experiment on UO-31 renal were 13.1 µM and 10.6 µM, respectively. Further, the TGI turned out to be 21.6 µM in the experiment on A549 NSCLC; 34 µM in the experiment on HL-60(TB) leukemia; 23.4 µM in the experiment on HOP-62 NSCLC; 31.5 µM in the experiment with LOX IMVI melanoma; 29.9 µM in the experiment on SK-MEL-2 melanoma; 27.5 µM in the experiment with SK-MEL-5 melanoma. For the same molecule, the TGI in the experiment with SNB-75 CNS was found to be 26.1 µM; in the experiment with UO-31 renal, 23.6 µM.

In the case of `COc1ccc(C(C#N)NNc2nc(C)cc(=O)[nH]2)cc1OC` (centres undefined), the total growth inhibition concentration (TGI) with A549 NSCLC, in the experiment on HL-60(TB) leukemia, with HOP-62 NSCLC, in the experiment with LOX IMVI melanoma, with SK-MEL-2 melanoma and in the experiment with SK-MEL-5 melanoma was above 100 µM each time. Besides, the TGI in the experiment on SNB-75 CNS and in the experiment on UO-31 renal was above 100 µM in each case.

Consider `COc1cc(-c2cn(-c3ccc(Cl)cc3)c(C)c2C(=O)C(F)(F)F)cc(OC)c1OC`, for which the GI50 was 17.9 µM with A549 NSCLC; 51.3 µM in the experiment with EKVX NSCLC; above 100 µM with HOP-62 NSCLC; above 100 µM with LOX IMVI melanoma; above 100 µM in the experiment on SK-MEL-2 melanoma; 7.18 µM with SK-MEL-5 melanoma. Also, the GI50 was 56.9 µM in the experiment with SNB-75 CNS and 19.2 µM in the experiment with UO-31 renal. The TGI in the experiment with A549 NSCLC, in the experiment with EKVX NSCLC, in the experiment with HOP-62 NSCLC, in the experiment with LOX IMVI melanoma, in the experiment with SK-MEL-2 melanoma and with SK-MEL-5 melanoma was above 100 µM each time. In addition, the TGI in the experiment on SNB-75 CNS and with UO-31 renal was above 100 µM each time.

For the molecule `CC12CCC(=O)C=C1CCC1C2C(O)CC2(C)C(c3csc(N)n3)CCC12` (centres undefined), the TGI in the experiment with A549 NSCLC, in the experiment with EKVX NSCLC, in the experiment with HOP-62 NSCLC, in the experiment on LOX IMVI melanoma, in the experiment on SK-MEL-2 melanoma and with SK-MEL-5 melanoma was above 100 µM throughout. In addition, the TGI in the experiment on SNB-75 CNS and with UO-31 renal was above 100 µM in each case.

For the molecule `CC(=O)n1c2ccccc2c2nc3nc(Oc4ccc(C)cc4)c4ccccc4c3cc21`, the TGI in the experiment with A549 NSCLC, with EKVX NSCLC, with HOP-62 NSCLC, in the experiment with LOX IMVI melanoma, in the experiment on SK-MEL-2 melanoma and with SK-MEL-5 melanoma was above 100 µM each time. The TGI in the experiment on SNB-75 CNS and in the experiment with UO-31 renal was above 100 µM each time.

With `CN(CCOc1ccc(C#N)cc1)CCOc1ccc(C#N)cc1`, the GI50 is above 100 µM with A549 NSCLC; 63.2 µM in the experiment on EKVX NSCLC; 20.7 µM in the experiment on HL-60(TB) leukemia; above 100 µM in the experiment with HOP-62 NSCLC; above 100 µM in the experiment with LOX IMVI melanoma; 78.6 µM in the experiment with SK-MEL-5 melanoma. The GI50 was above 100 µM with SNB-75 CNS and 18.7 µM in the experiment with UO-31 renal. In addition, the TGI with A549 NSCLC, in the experiment on EKVX NSCLC, in the experiment on HL-60(TB) leukemia, in the experiment on HOP-62 NSCLC, with LOX IMVI melanoma and in the experiment with SK-MEL-5 melanoma was above 100 µM throughout. For the same molecule, the TGI in the experiment with SNB-75 CNS and in the experiment on UO-31 renal was above 100 µM in each case.

In the case of `Fc1ccc2[nH]c3c(NCCCN4CCOCC4)ncnc3c2c1`, the GI50 with HL-60(TB) leukemia is 51.9 µM; with HOP-62 NSCLC, 42.8 µM; in the experiment on LOX IMVI melanoma, 30.7 µM; with SK-MEL-2 melanoma, 52 µM; in the experiment on SK-MEL-5 melanoma it was 21.3 µM; with SNB-75 CNS, 37.5 µM. In addition, the GI50 with UO-31 renal is 33 µM. In addition, the TGI in the experiment on HL-60(TB) leukemia is above 100 µM; with HOP-62 NSCLC, above 100 µM; with LOX IMVI melanoma, above 100 µM; in the experiment with SK-MEL-2 melanoma, above 100 µM; with SK-MEL-5 melanoma it was 73.1 µM; in the experiment with SNB-75 CNS, above 100 µM. In addition, the TGI in the experiment with UO-31 renal was above 100 µM.

In the case of `C[C@@H]1COCCN1c1cc(C2(S(C)(=N)=O)CC2)nc(-c2ccnc3[nH]ccc23)n1` (some centres undefined), the GI50 is 3.35 µM in the experiment with A549 NSCLC; 4 µM in the experiment on HL-60(TB) leukemia; 2.94 µM in the experiment with HOP-62 NSCLC; 1.63 µM in the experiment on LOX IMVI melanoma; 4.59 µM with SK-MEL-2 melanoma; 4.17 µM with SK-MEL-5 melanoma. The GI50 was 1.64 µM in the experiment on SNB-75 CNS and 2.55 µM with UO-31 renal. Besides, the TGI was 35.2 µM in the experiment with A549 NSCLC; above 100 µM with HL-60(TB) leukemia; 36.1 µM in the experiment on HOP-62 NSCLC; 12.7 µM with LOX IMVI melanoma; 18.9 µM in the experiment with SK-MEL-2 melanoma; 35 µM with SK-MEL-5 melanoma. Further, the figures for the TGI with SNB-75 CNS and in the experiment with UO-31 renal were 12.8 µM and 22.8 µM, respectively.

For the molecule `O=C1C(Cl)=C(Nc2cccc(O)c2)C(=O)N1c1cc(Cl)c(Cl)cc1Cl`, the GI50 was 21.7 µM in the experiment on A549 NSCLC; 23 µM in the experiment with EKVX NSCLC; 21.3 µM in the experiment on HOP-62 NSCLC; 13 µM in the experiment with LOX IMVI melanoma; 15 µM in the experiment on SK-MEL-2 melanoma; 11 µM in the experiment with SK-MEL-5 melanoma. Besides, the GI50 is 16.4 µM in the experiment with SNB-75 CNS and 13.5 µM with UO-31 renal. Moreover, the TGI turned out to be 47.5 µM in the experiment on A549 NSCLC; 73.7 µM in the experiment with EKVX NSCLC; 36.9 µM with HOP-62 NSCLC; 28 µM with LOX IMVI melanoma; 29.6 µM in the experiment on SK-MEL-2 melanoma; 23.3 µM in the experiment with SK-MEL-5 melanoma. For the same molecule, the figures for the TGI in the experiment on SNB-75 CNS and in the experiment with UO-31 renal were 31.3 µM and 26.4 µM, respectively.

With `Nc1cc(N)c(N)cc1N`, the GI50 in the experiment on A549 NSCLC was 2.06 µM; in the experiment with EKVX NSCLC it was 2.7 µM; in the experiment with HL-60(TB) leukemia it was 2.17 µM; in the experiment with HOP-62 NSCLC, 1.76 µM; with LOX IMVI melanoma it was 1.82 µM; in the experiment on SK-MEL-5 melanoma, 0.736 µM. The GI50 in the experiment with SNB-75 CNS was 1.47 µM; in the experiment with UO-31 renal, 1.56 µM. Also, the TGI in the experiment on A549 NSCLC was found to be 4.51 µM; with EKVX NSCLC, 8.02 µM; in the experiment with HL-60(TB) leukemia it was 6.02 µM; in the experiment on HOP-62 NSCLC, 3.35 µM; in the experiment with LOX IMVI melanoma it was 3.75 µM; in the experiment with SK-MEL-5 melanoma, 2.02 µM. Further, the TGI stood at 2.87 µM in the experiment with SNB-75 CNS and 4.6 µM in the experiment with UO-31 renal.
